Test system: brain of rats subjected to severe traumatic brain injury (sTBI)
Experiment: Ingenuity pathway analysis of differentially regulated genes after sTBI (canonical pathways, diseases and molecular functions; Example 4)
Set-up: species or system rat
Conditions: TBI + 5 mg/kg LMW-DS
Procedure: Pathway analysis of the differentially regulated genes was carried out using the Ingenuity pathway analysis package. The analysis was performed with special reference to pathways and molecular processes and diseases associated with neurodegenerative disease, including dementia, Alzheimer's disease, ALS, TBI and stroke, and with scarring and fibrosis, including glaucoma and normal pressure hydrocephalus (NPH) after subarachnoid haemorrhage.

[1] = 7 days after TBI, relative to control

For sodium salt of dextran sulfate [LMW-DS], the “Effect on diseases or functions annotation: Resorption of bone” value (2 days after TBI) was “Inhibited”, the “Effect on diseases or functions annotation: Secretion of molecule” value (2 days after TBI) was “Activated” and the “Effect on diseases or functions annotation: Size of body” value (2 days after TBI) was “Inhibited”. The “Effect on diseases or functions annotation: Synthesis of hormone” value (2 days after TBI) was “Inhibited”, the “Effect on diseases or functions annotation: Transcription of RNA” value (2 days after TBI) was “Inhibited” and the “Effect on diseases or functions annotation: Transport of molecule” value (2 days after TBI) was “Activated”. For the same substance, the “Effect on diseases or functions annotation: Vasculogenesis” value (2 days after TBI) was “Inhibited”, the “z score, Ingenuity canonical pathway: Acute Phase Response Signaling” value [1] was 1.89 and the “z score, Ingenuity canonical pathway: Adrenomedullin signaling pathway” value [1] was −0.632. The “z score, Ingenuity canonical pathway: Cardiac Hypertrophy Signaling” value [1] was 1, the “z score, Ingenuity canonical pathway: Colorectal Cancer Metastasis Signaling” value [1] was −0.378 and the “z score, Ingenuity canonical pathway: Dendritic Cell Maturation” value [1] was 1.897. For the same substance, the “z score, Ingenuity canonical pathway: ERK5 Signaling” value [1] was −0.447, the “z score, Ingenuity canonical pathway: ERK/MAPK Signaling” value [1] was 1 and the “z score, Ingenuity canonical pathway: Endothelin-1 Signaling” value [1] was 1.633. For the same substance, the “z score, Ingenuity canonical pathway: Fcγ Receptor-mediated Phagocytosis in Macrophages and Monocytes” value [1] was 2.236, the “z score, Ingenuity canonical pathway: GNRH Signaling” value [1] was 2 and the “z score, Ingenuity canonical pathway: HMGB1 Signaling” value [1] was 1.134. The “z score, Ingenuity canonical pathway: IL-1 Signaling” value [1] was 1, the “z score, Ingenuity canonical pathway: IL-6 Signaling” value [1] was 1 and the “z score, Ingenuity canonical pathway: IL-8 Signaling” value [1] was 2.646. For the same substance, the “z score, Ingenuity canonical pathway: ILK Signaling” value [1] was 1.89, the “z score, Ingenuity canonical pathway: Leukocyte Extravasation Signaling” value [1] was 1.342 and the “z score, Ingenuity canonical pathway: Neuroinflammation Signaling Pathway” value [1] was 1.941. For the same substance, the “z score, Ingenuity canonical pathway: Osteoarthritis Pathway” value [1] was -1, the “z score, Ingenuity canonical pathway: PI3K Signaling in B Lymphocytes” value [1] was 1.89 and the “z score, Ingenuity canonical pathway: PKCθ Signaling in T Lymphocytes” value [1] was 2. For the same substance, the “z score, Ingenuity canonical pathway: PPAR Signaling” value [1] was −1.342, the “z score, Ingenuity canonical pathway: Phospholipase C Signaling” value [1] was 1 and the “z score, Ingenuity canonical pathway: Production of Nitric Oxide and Reactive Oxygen Species in Macrophages” value [1] was 2.236. For the same substance, the “z score, Ingenuity canonical pathway: Protein Kinase A Signaling” value [1] was −1.342, the “z score, Ingenuity canonical pathway: Role of NFAT in Regulation of the Immune Response” value [1] was 2.53 and the “z score, Ingenuity canonical pathway: Signaling by Rho Family GTPases” value [1] was 1. For the same substance, the “z score, Ingenuity canonical pathway: Synaptic Long Term Depression” value [1] was 1, the “z score, Ingenuity canonical pathway: Wnt/β-catenin Signaling” value [1] was −1 and the “z score, Ingenuity canonical pathway: cAMP-mediated signaling” value [1] was −2. For the same substance, the “z score, Ingenuity canonical pathway: mTOR Signaling” value [1] was 1, the “Diseases or functions annotation: Abdominal adenocarcinoma” value (7 days after TBI) was “Activated” and the “Diseases or functions annotation: Abdominal cancer” value (7 days after TBI) was “Inhibited”. The “Diseases or functions annotation: Abdominal carcinoma” value (7 days after TBI) was “Inhibited”, the “Diseases or functions annotation: Abdominal neoplasm” value (7 days after TBI) was “Activated” and the “Diseases or functions annotation: Adenocarcinoma” value (7 days after TBI) was “Inhibited”. For the same substance, the “Diseases or functions annotation: Angiogenesis” value (7 days after TBI) was “Activated”, the “Diseases or functions annotation: Apoptosis” value (7 days after TBI) was “Inhibited” and the “Diseases or functions annotation: Apoptosis of tumor cell lines” value (7 days after TBI) was “Inhibited”. The “Diseases or functions annotation: Bleeding” value (7 days after TBI) was “Inhibited”, the “Diseases or functions annotation: Breast or colorectal cancer” value (7 days after TBI) was “Inhibited” and the “Diseases or functions annotation: Breast or ovarian cancer” value (7 days after TBI) was “Inhibited”. For the same substance, the “Diseases or functions annotation: Breast or pancreatic cancer” value (7 days after TBI) was “Inhibited”, the “Diseases or functions annotation: Cancer” value (7 days after TBI) was “Activated” and the “Diseases or functions annotation: Cancer of cells” value (7 days after TBI) was “Activated”. The “Diseases or functions annotation: Cancer of secretory structure” value (7 days after TBI) was “Activated”, the “Diseases or functions annotation: Carcinoma” value (7 days after TBI) was “Inhibited” and the “Diseases or functions annotation: Cell cycle progression” value (7 days after TBI) was “Activated”. For the same substance, the “Diseases or functions annotation: Cell death” value (7 days after TBI) was “Activated”, the “Diseases or functions annotation: Cell death of epithelial cells” value (7 days after TBI) was “Activated” and the “Diseases or functions annotation: Cell death of tumor cell lines” value (7 days after TBI) was “Inhibited”. For the same substance, the “Diseases or functions annotation: Cell movement” value (7 days after TBI) was “Activated”, the “Diseases or functions annotation: Cell movement of endothelial cells” value (7 days after TBI) was “Activated” and the “Diseases or functions annotation: Cell movement of myeloid cells” value (7 days after TBI) was “Activated”. The “Diseases or functions annotation: Cell movement of tumor cell lines” value (7 days after TBI) was “Activated”, the “Diseases or functions annotation: Cell survival” value (7 days after TBI) was “Activated” and the “Diseases or functions annotation: Cell viability” value (7 days after TBI) was “Activated”. For the same substance, the “Diseases or functions annotation: Cell viability of tumor cell lines” value (7 days after TBI) was “Activated”, the “Diseases or functions annotation: Cellular homeostasis” value (7 days after TBI) was “Activated” and the “Diseases or functions annotation: Chemotaxis” value (7 days after TBI) was “Activated”. For the same substance, the “Diseases or functions annotation: Concentration of lipid” value (7 days after TBI) was “Inhibited”, the “Diseases or functions annotation: Development of body axis” value (7 days after TBI) was “Activated” and the “Diseases or functions annotation: Development of body trunk” value (7 days after TBI) was “Activated”. The “Diseases or functions annotation: Development of connective tissue cells” value (7 days after TBI) was “Activated”, the “Diseases or functions annotation: Development of epithelial tissue” value (7 days after TBI) was “Activated” and the “Diseases or functions annotation: Development of genitourinary system” value (7 days after TBI) was “Inhibited”. The “Diseases or functions annotation: Development of head” value (7 days after TBI) was “Activated”, the “Diseases or functions annotation: Development of neurons” value (7 days after TBI) was “Activated” and the “Diseases or functions annotation: Development of sensory organ” value (7 days after TBI) was “Activated”. The “Diseases or functions annotation: Development of vasculature” value (7 days after TBI) was “Activated”, the “Diseases or functions annotation: Differentiation of bone” value (7 days after TBI) was “Activated” and the “Diseases or functions annotation: Differentiation of bone cells” value (7 days after TBI) was “Activated”. The “Diseases or functions annotation: Differentiation of connective tissue cells” value (7 days after TBI) was “Activated”, the “Diseases or functions annotation: Digestive organ tumor” value (7 days after TBI) was “Inhibited” and the “Diseases or functions annotation: Digestive system cancer” value (7 days after TBI) was “Inhibited”. For the same substance, the “Diseases or functions annotation: Endocrine gland tumor” value (7 days after TBI) was “Inhibited”, the “Diseases or functions annotation: Expression of RNA” value (7 days after TBI) was “Activated” and the “Diseases or functions annotation: Extracranial solid tumor” value (7 days after TBI) was “Activated”. For the same substance, the “Diseases or functions annotation: Failure of kidney” value (7 days after TBI) was “Activated”, the “Diseases or functions annotation: Formation of eye” value (7 days after TBI) was “Activated” and the “Diseases or functions annotation: Gastrointestinal tumor” value (7 days after TBI) was “Inhibited”. The “Diseases or functions annotation: Genital tumor” value (7 days after TBI) was “Activated”, the “Diseases or functions annotation: Genitourinary carcinoma” value (7 days after TBI) was “Activated” and the “Diseases or functions annotation: Genitourinary tumor” value (7 days after TBI) was “Activated”. The “Diseases or functions annotation: Glucose metabolism disorder” value (7 days after TBI) was “Activated”, the “Diseases or functions annotation: Growth of connective tissue” value (7 days after TBI) was “Inhibited” and the “Diseases or functions annotation: Growth of epithelial tissue” value (7 days after TBI) was “Inhibited”. For the same substance, the “Diseases or functions annotation: Growth of tumor” value (7 days after TBI) was “Activated”, the “Diseases or functions annotation: Head and neck cancer” value (7 days after TBI) was “Inhibited” and the “Diseases or functions annotation: Head and neck tumor” value (7 days after TBI) was “Inhibited”. The “Diseases or functions annotation: Hematologic cancer” value (7 days after TBI) was “Inhibited”, the “Diseases or functions annotation: Hematologic cancer of cells” value (7 days after TBI) was “Inhibited” and the “Diseases or functions annotation: Hematopoietic neoplasm” value (7 days after TBI) was “Inhibited”. For the same substance, the “Diseases or functions annotation: Intestinal tumor” value (7 days after TBI) was “Inhibited”, the “Diseases or functions annotation: Invasion of cells” value (7 days after TBI) was “Activated” and the “Diseases or functions annotation: Leukocyte migration” value (7 days after TBI) was “Activated”. The “Diseases or functions annotation: Lymphatic system tumor” value (7 days after TBI) was “Inhibited”, the “Diseases or functions annotation: Lymphocytic cancer” value (7 days after TBI) was “Inhibited” and the “Diseases or functions annotation: Lymphocytic neoplasm” value (7 days after TBI) was “Inhibited”. The “Diseases or functions annotation: Lymphoid cancer” value (7 days after TBI) was “Inhibited”, the “Diseases or functions annotation: Lymphoma” value (7 days after TBI) was “Inhibited” and the “Diseases or functions annotation: Lymphoproliferative disorder” value (7 days after TBI) was “Inhibited”. For the same substance, the “Diseases or functions annotation: Lymphoreticular neoplasm” value (7 days after TBI) was “Inhibited”, the “Diseases or functions annotation: Malignant genitourinary solid tumor” value (7 days after TBI) was “Activated” and the “Diseases or functions annotation: Malignant solid tumor” value (7 days after TBI) was “Activated”. For the same substance, the “Diseases or functions annotation: Microtubule dynamics” value (7 days after TBI) was “Activated”, the “Diseases or functions annotation: Migration of cells” value (7 days after TBI) was “Activated” and the “Diseases or functions annotation: Migration of endothelial cells” value (7 days after TBI) was “Activated”. The “Diseases or functions annotation: Morbidity or mortality” value (7 days after TBI) was “Inhibited”, the “Diseases or functions annotation: Necrosis” value (7 days after TBI) was “Activated” and the “Diseases or functions annotation: Necrosis of epithelial tissue” value (7 days after TBI) was “Activated”. The “Diseases or functions annotation: Neoplasia of cells” value (7 days after TBI) was “Activated”, the “Diseases or functions annotation: Neoplasia of leukocytes” value (7 days after TBI) was “Inhibited” and the “Diseases or functions annotation: Non-hematological solid tumor” value (7 days after TBI) was “Activated”. The “Diseases or functions annotation: Non-melanoma solid tumor” value (7 days after TBI) was “Activated”, the “Diseases or functions annotation: Nonhematologic malignant neoplasm” value (7 days after TBI) was “Inhibited” and the “Diseases or functions annotation: Obesity” value (7 days after TBI) was “Activated”. For the same substance, the “Diseases or functions annotation: Organismal death” value (7 days after TBI) was “Inhibited”, the “Diseases or functions annotation: Organization of cytoskeleton” value (7 days after TBI) was “Activated” and the “Diseases or functions annotation: Pelvic tumor” value (7 days after TBI) was “Activated”. For the same substance, the “Diseases or functions annotation: Peripheral vascular disease” value (7 days after TBI) was “Activated”, the “Diseases or functions annotation: Proliferation of connective tissue cells” value (7 days after TBI) was “Inhibited” and the “Diseases or functions annotation: Proliferation of epithelial cells” value (7 days after TBI) was “Inhibited”. The “Diseases or functions annotation: Quantity of cells” value (7 days after TBI) was “Activated”, the “Diseases or functions annotation: Quantity of connective tissue” value (7 days after TBI) was “Activated” and the “Diseases or functions annotation: Renal impairment” value (7 days after TBI) was “Activated”. For the same substance, the “Diseases or functions annotation: Secretion of molecule” value (7 days after TBI) was “Activated”, the “Diseases or functions annotation: Sensory system development” value (7 days after TBI) was “Inhibited” and the “Diseases or functions annotation: Size of body” value (7 days after TBI) was “Activated”. For the same substance, the “Diseases or functions annotation: Skin lesion” value (7 days after TBI) was “Inhibited”, the “Diseases or functions annotation: Skin tumor” value (7 days after TBI) was “Inhibited” and the “Diseases or functions annotation: Solid tumor” value (7 days after TBI) was “Activated”. The “Diseases or functions annotation: Synthesis of lipid” value (7 days after TBI) was “Activated”, the “Diseases or functions annotation: Transcription” value (7 days after TBI) was “Activated” and the “Diseases or functions annotation: Transcription of RNA” value (7 days after TBI) was “Activated”. The “Diseases or functions annotation: Transport of molecule” value (7 days after TBI) was “Activated”, the “Diseases or functions annotation: Tumorigenesis of tissue” value (7 days after TBI) was “Inhibited” and the “Diseases or functions annotation: Vasculogenesis” value (7 days after TBI) was “Activated”.
